Patent US7396905B1, “Calcipressins: endogenous inhibitors of calcineurin, uses and reagents related thereto” (priority 1999, dated 2008)

Columns and labels:
[1] = tested on: BHK cells transfected with CnA and CnB; experiment: Calcium ionophore-induced apoptosis of BHK cells transfected with CnA/CnB; assay type: cell-based, baby hamster; settings: ionomycin, low serum
Description: FIG. 7: Cells transfected with CnA/CnB (0.5 μg each) were serum deprived for four hours and stimulated with ionomycin (0.25 μM) for one hour in low serum media alone or containing CsA (800 nM), 6 MeAla-CsA (800 nM), and MeBm2t-CsA (800 nM), FK506 (100 nM).
Calcium signaling plays an important and yet mechanistically vague role in a wide range of cell death, including neuronal cell death in stroke and lymphocyte cell death during positive and negative selection. To test the possibility that calcineurin, a calcium-activated phosphatase, participates in cell death, we asked if cells overexpressing calcineurin would show an enhanced sensitivity to calcium ionophore-induced cell death (Shibasaki and McKeon, 1995). We co-transfected calcineurin A and B subunits into baby hamster kidney (BHK) cells and treated them with calcium ionophore approximately 16 hours later.

Csp1 transcripts = experiment: Csp1 transcript induction (Northern blot) in Jurkat T cells; assay type: cell-based; settings: human Jurkat T cells, through eight hours
Description: 16A. Calcium signaling induces Csp 1 expression in synergy with PKC pathways. Csp 1 Northern blot of Jurkat T cells were treated with either calcium ionophore (I), PMA (P) or both (I+P) for the indicated durations. GAPDH transcripts were used as sample loading control.
16B. Calcium-dependent Csp 1 induction requires calcineurin.

[2] = tested on: calcineurin-dependent nuclear import of NF-AT4; experiment: Calcineurin-dependent NF-AT4 nuclear import assay in BHK cells; assay type: cell-based, baby hamster; settings: for inhibition of NF-AT4 nuclear import stimulated by calcium ionophore: co-expressed with GFP-NF-AT4 in BHK cells; for inhibition of NF-AT nuclear import driven by constitutively active calcineurin (ΔCnA): co-expressed with NF-AT and constitutively active ΔCnA in BHK cells
Description: This assay monitors the subcellular location of GFP-tagged NF-AT4, a transcription factor that resides in the cytoplasm of unstimulated BHK cells. Following stimulation of BHK cells with ionomycin, a calcium ionophore, GFP-NF-AT4 translocates to the nucleus with a t1/2 of five minutes. This translocation event is accompanied by a dephosphorylation of NF-AT4 in a process dependent on calcineurin.
Baby hamster kidney cells were grown on sterile glass coverslips in DMEM media with 10% fetal calf serum and transfected using calcium phosphate methods (Heald et al., 1993). […] NF-AT4 expression was based on the vector pcDNA3-GFP-NF-AT4 (Shibasaki et al., 1996). Transfected cells were grown for 18 hours prior to drug treatments. Cells were fixed 30 minutes after ionomycin (0.5 uM) treatment or washout using 3% formaldehyde in PBS for 10 minutes at room temperature.

[3] = Solubility assay upon expression in E. coli; assay type: physicochemical
Description: Calcineurin consists of two subunits (Klee et al., 1998), CnA (60 kDa) and CnB (18 kDa), neither of which is soluble when expressed individually in E. coli. The structure of calcineurin was studied by taking advantage of the high level of calcineurin in the central nervous system to directly isolate it from bovine brain (Griffith et al., 1995). […] It is likely that the insolublility of Csp expression in E. coli is due to the absence of binding proteins such as calcineurin, thereby leaving hydrophobic stretches of amino acids uncomplemented (FIG. 1). As with the calcineurin subunits, it is possible that Csp 1 and Csp2 interact with calcineurin in a manner that will form a properly folded, soluble complex. […] The E. coli host containing the calcineurin expression vector will be transformed with these Csp vectors and selected for kanamycin resistance.
Alternatively the given protein or complex may be obtained in sufficient quantities and quality and crystallization protocols may be attempted. […] The skilled artisan will appreciate that other protein expression systems, such as baculovirus, may also be used.

[4] = biological target: T1, purified bovine brain calcineurin (Bos taurus, UniProt P48452+P63099); experiment: Phosphorylated RII-peptide calcineurin phosphatase assay; assay type: biochemical; settings: PKA-phosphorylated RII peptide as substrate; GsT fusion proteins 0-20 nM, 15 minutes; read-out: 50 percent inhibition concentrations (IC50) for calcineurin
T1 construct: 50 nM purified bovine brain calcineurin; from tissue; host or cells: bovine brain
Description: The RII peptide of the cAMP-regulatory subunit of PKA was produced as a fusion protein with GsT and labeled with ^32P-phosphate using protein kinase A followed by glutathione-Sepharose affinity purification (Milan et al., 1994). The radiolabeled RII GsT fusion protein was incubated with 1.5u of purified bovine brain calcineurin (ProMega) and 200 nM calmodulin (Sigma) in the presence of 0-20 nM GsT-Csp1 or GsT-Csp2 for 15 minutes. The reaction was stopped by the addition of an equal volume of 2xSDS sample buffer. After fractionation by SDS-polyacrylamide gel electrophoresis, free phosphate was measured by PhosphorImager analysis.

[5] = biological target: T1, purified bovine brain calcineurin; experiment: Para-nitrophenyl phosphate (pNPP) hydrolysis assay; assay type: biochemical; settings: 60 mM pNPP, 50 nM calcineurin, 0-100 nM GsT fusion protein
Description: To determine whether the calcipressins; inhibit calcineurin in a manner similar to the immunosuppressants, we assayed pNPP hydrolysis by calcineurin-calcipressin complexes.
Reactions were performed for 30 min at 30 degrees, and stopped by the addition of 950 uL of 1M NaOH. The reaction product was measured by absorbance at 405 nm in a Beckman Du 64 spectophotometer.

[6] = tested on: calcineurin-dependent NF-AT dephosphorylation; experiment: NF-AT4 dephosphorylation (western blot mobility) in BHK cells; assay type: cell-based, baby hamster; settings: co-expressed with NF-AT4 in BHK cells; calcium ionophore treatment
Description: 3B. […] The transfected cells were either left untreated or treated with 1 μM calcium inonphore for 30 min, and the mobility of NF-AT4 was assessed by western blotting.

[7] = tested on: human calcineurin A subunit; experiment: Yeast two-hybrid interaction with calcineurin; assay type: binding
Sequence of human calcineurin A subunit (P63098 2-170, further chain): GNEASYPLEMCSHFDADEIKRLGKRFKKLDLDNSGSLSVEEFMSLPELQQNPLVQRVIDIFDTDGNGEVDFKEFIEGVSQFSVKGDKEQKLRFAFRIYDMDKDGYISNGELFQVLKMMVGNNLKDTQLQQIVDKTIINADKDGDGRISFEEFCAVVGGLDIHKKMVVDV
Description: Potential targets of calcineurin, which is involved in neuronal calcium signaling, were identified using two hybrid screens of a murine hippocampal cDNA library as the prey and using calcineurin as a bait.
The calcineurin bait vector was constructed by cloning the human calcineurin A subunit (ΔCnAD130N; Zhu and McKeon, 1999) into pBRIDGE (Clontech) to create a fusion protein with the Gal4 DNA binding domain. The calcineurin regulatory B subunit (CnB) was cloned into the same pBridge vector under a separate, constitutive promoter. To test for interactions between calcineurin and proteins expressed in the hippocampus, the yeast strain CG1945, in which HIS3 expression is controlled by the Gal1 upstream activating sequence (UAS), was transfected with both the pBRIDGE vector as well as vector DNA from the murine hippocampal cDNA library. Cells were selected for growth on SD media lacking leucine, tryptophan, methionine, and histidine (-LWMH) containing 25 mM 3-aminotriazole, an inhibitor of alternative histidine biosynthetic pathways (REF). […]

Molecule: C/C=C/CC(C)(C)[C@@H](O)C1C(=O)N[C@@H](CC)C(=O)N(C)CC(=O)N(C)[C@@H](CC(C)C)C(=O)N[C@@H](C(C)C)C(=O)N(C)[C@@H](CC(C)C)C(=O)N[C@@H](C)C(=O)N[C@H](C)C(=O)N(C)[C@@H](CC(C)C)C(=O)N(C)[C@@H](CC(C)C)C(=O)N(C)[C@@H](C(C)C)C(=O)N1C (some centres unmarked) [MeBm2t-CsA]
- effect on calcineurin-induced apoptosis [1]: augment the apoptotic effect of calcineurin to a greater extent than CsA

Molecule: CCCCCCCCCCCCCC(=O)O[C@@H]1[C@@H](C)[C@@]2(O)[C@@H](C=C(CO)C[C@]3(O)C(=O)C(C)=C[C@@H]23)[C@@H]2C(C)(C)[C@]12OC(C)=O [PMA, phorbol 12-myristate 13-acetate]
- effect on Csp1 transcript level (Csp1 transcripts): weak yet detectable stimulation of Csp1 transcription

Molecule: C[C@H](CCC(=O)O)C[C@H](C)C[C@H](C)C(=O)/C=C(\O)[C@H](C)C[C@H](C)C/C=C/[C@@H](C)[C@@H](O)[C@@H](C)[C@@H](O)C[C@@H]1CC[C@@](C)([C@H]2CC[C@@](C)([C@@H](C)O)O2)O1 [ionomycin]
- effect on Csp1 transcript level (Csp1 transcripts): not significantly elevated

Molecule: Csp1 101-197: Csp1 lacking the N-terminus; C-terminal half of Csp1 (amino acids 101-197)
- inhibition of NF-AT4 nuclear import stimulated by calcium ionophore [2]: sufficient to inhibit the nuclear import of NF-AT4
- fraction of molecule soluble in E. coli ([3]; truncated molecule expressed in E. coli): approximately 70%

Molecule: Csp1: Calcipressin 1, murine homolog of DSCR1, endogenous inhibitor of calcineurin; amino acid sequence SEQ ID No: 4
- IC50 [4]: 2 nM

Molecule: Csp2: Calcipressin 2, murine homolog of ZAKI-4, endogenous inhibitor of calcineurin; amino acid sequence SEQ ID No: 5
- IC50 [4]: 5 nM
- inhibition of pNPP hydrolysis by calcineurin [5]: blocked the hydrolysis of pNPP by calcineurin
- inhibition of NF-AT4 nuclear import stimulated by calcium ionophore [2]: profound suppression
- inhibition of NF-AT nuclear import driven by constitutively active calcineurin (ΔCnA) [2]: strong inhibitors of ΔCnA-induced NF-AT nuclear import
- NF-AT4 phosphorylation state [6]: hyperphosphorylated despite calcium ionophore treatment
- binding to calcineurin in two-hybrid yeast strains [7]: specifically bind to the catalytic subunit of calcineurin (CnA)
- typical yield of total protein in the soluble fraction ([3]; full length molecule expressed in E. coli at 15, 22, or 30° C.): 3%

Molecule: Csp3: Third calcipressin family member, cDNA cloned from activated murine T cells; amino acid sequence SEQ ID No: 24
- inhibition of NF-AT nuclear import driven by constitutively active calcineurin (ΔCnA) [2]: inhibits the calcineurin mediated translocation of NFAT
